Series [1] relates to Mus musculus. Kind of series: Antiallodynic activity in ip dosed NMRI mouse model of spared nerve injury-induced mechanical allodynia assessed as pain relief administered 14 days post spared nerve injury surgery measured at 15 to 60 mins post dose by Von Frey filament assay. The series is classed as functional.
Series [2] concerns Mus musculus. Kind of series: Antiallodynic activity in NMRI mouse model of spared nerve injury-induced mechanical allodynia assessed as pain relief at 585 umol/kg, ip administered 14 days post spared nerve injury surgery measured at 60 mins post dose by Von Frey filament assay. It counts as functional, organism-based.
The test system of series [3] is Mus musculus. Kind of series: Antiallodynic activity in NMRI mouse model of spared nerve injury-induced mechanical allodynia assessed as pain relief at 585 umol/kg, ip administered 14 days post spared nerve injury surgery measured at 30 mins post dose Von Frey filament assay. It counts as functional, organism-based.
For series [4], the system named is Mus musculus. Kind of series: Antiallodynic activity in NMRI mouse model of spared nerve injury-induced mechanical allodynia assessed as pain relief at 585 umol/kg, ip administered 14 days post spared nerve injury surgery measured at 180 mins post dose by Von Frey filament assay. It counts as functional, organism-based.
Series [5] relates to Mus musculus. The series is described as follows: Antiallodynic activity in NMRI mouse model of spared nerve injury-induced mechanical allodynia assessed as pain relief at 12 umol/kg, ip administered 14 days post spared nerve injury surgery measured at 45 mins post dose by Von Frey filament assay. It counts as functional, organism-based.
The subject of series [6] is Mus musculus. Kind of series: Antiallodynic activity in NMRI mouse model of spared nerve injury-induced mechanical allodynia assessed as increase in mechanical threshold at 1.85 to 1850 nmol/kg, ip administered 14 days post spared nerve injury surgery measured at 45 mins post dose by Von Frey filament assay. The series is classed as functional, organism-based.
Series [7] relates to Mus musculus. The series is described as follows: Antiallodynic activity in NMRI mouse model of spared nerve injury-induced mechanical allodynia assessed as increase in mechanical threshold at 185 nmol/kg, ip administered 14 days post spared nerve injury surgery and co-treated with 1850 nmol/kg, ip D-SP1-7 by Von Frey filament assay. It counts as functional, organism-based.

Series [8] can be described thus: Cytotoxicity against Sprague-Dawley rat primary cortical cells assessed as reduction in cell viability at 10^-5 to 10^-9 M after 24 hrs by MTT assay. It counts as cell-based. A general note: Formazan colour is commonly taken as a measure of viable cells.
Series [9] in a line: Apparent permeability from apical to basolateral side in human Caco2 cells assessed as mass balance at 100 uM after 15 to 120 mins by LC-MS analysis. The series is classed as ADME, cell-based. The following applies: Caco-2, read-out: Activity. For orientation: Caco-2 cells form a polarised layer with tight junctions and transporters.
The test system of series [10] is Mus musculus. Kind of series: Antiallodynic activity in NMRI mouse model of spared nerve injury-induced mechanical allodynia assessed as increase in mechanical threshold at 185 nmol/kg, ip administered 14 days post spared nerve injury surgery measured at 15 to 60 mins post dose by Von Frey filament assay. The series is classed as functional, organism-based.
Series [11] relates to Mus musculus. Kind of series: Antiallodynic activity in NMRI mouse model of spared nerve injury-induced mechanical allodynia assessed as increase in mechanical threshold at 185 to 1850 nmol/kg, ip administered 14 days post spared nerve injury surgery measured at 15 to 60 mins post dose by Von Frey filament assay. It counts as functional, organism-based.
A short description of series [12]: Efflux ratio of apparent permeability from basolateral to apical over apical to basolateral side in human Caco2 cells at 100 uM after 15 to 120 mins by LC-MS analysis. The following applies: Caco-2. It counts as ADME, cell-based.
The test system of series [13] is Mus musculus. Kind of series: Potency index, ratio of gabapentin ED50 to compound ED50 for antiallodynic activity in ip dosed NMRI mouse model of spared nerve injury-induced mechanical allodynia by Von Frey filament assay. It counts as functional.
The nature of series [14]: Cytotoxicity against Sprague-Dawley rat primary cortical cells assessed as reduction in […] at 10^-5 to 10^-9 M after 24 hrs by LDH assay. The series is classed as cell-based.
Series [15] can be described thus: Apparent permeability from apical to basolateral side in human Caco2 cells at 100 uM after 15 to 120 mins by LC-MS analysis. It counts as ADME, cell-based. As to conditions: Caco-2.
Series [16] in a line: Apparent permeability from basolateral to apical side in human Caco2 cells at 100 uM after 15 to 120 mins by LC-MS analysis. As to conditions: Caco-2. The series is classed as ADME, cell-based.
Series [17] in a line: Half life in human plasma at 4 uM after 180 mins by LC-MS/MS analysis. It counts as ADME, cell-free.
Series [18] concerns Mus musculus. The series is described as follows: Potency index, ratio of morphine ED50 to compound ED50 for antiallodynic activity in ip dosed NMRI mouse model of spared nerve injury-induced mechanical allodynia by Von Frey filament assay. The series is classed as functional.
The nature of series [19]: Apparent permeability from basolateral to apical side in human Caco2 cells assessed as mass balance at 100 uM after 15 to 120 mins by LC-MS analysis. As to conditions: Caco-2, read-out: Activity. The series is classed as ADME, cell-based.
Series [20] relates to Mus musculus. Kind of series: Antiallodynic activity in NMRI mouse model of spared nerve injury-induced mechanical allodynia assessed as increase in mechanical threshold at 1.85 to 1850 nmol/kg, ip administered 14 days post spared nerve injury surgery measured at 30 mins post dose by Von Frey filament assay. It counts as functional, organism-based.
Series [21] relates to Mus musculus. Kind of series: Antiallodynic activity in ip dosed NMRI mouse model of spared nerve injury-induced mechanical allodynia assessed as increase in mechanical threshold administered 14 days post spared nerve injury surgery by Von Frey filament assay. It counts as functional, organism-based.
The nature of series [22]: Half life in NMRI mouse plasma at 4 uM after 180 mins by LC-MS/MS analysis. The series is classed as ADME, cell-free.

The source made the active and inactive calls.

Turning to `NCC1(CC(=O)O)CCCCC1` [GABAPENTIN], the ED50 in [1] stood at 336 µmol/kg. In addition, the result in series [2] and in series [3] was Active. The outcome in series [4] was inactive.
With `CN1CC[C@]23c4c5ccc(O)c4O[C@H]2[C@@H](O)C=C[C@H]3[C@H]1C5` [MORPHINE], the median effective dose (ED50) in [1] was 6.5 µmol/kg. The result in [5] was Active.
For `NC(=O)[C@H](Cc1ccccc1)NC(=O)c1[nH]cnc1-c1ccccc1`, the ED50 in series [1] came to 0.21 µmol/kg. Also, the result in series [6] and in [7] was inactive. Besides, the Activity entry in series [8] is “Non-Toxic”; in [14] it was “Non-Toxic”; in [21] it was “Dose-dependent effect”. The recovery at 100 µM turned out to be 65% in series [9] and 67% in [19]. Moreover, the result in series [10], in [11] and in series [20] was Active. Moreover, in series [12], the efflux ratio at 100 µM was 19. In addition, the “Ratio ED50” value in [13] came out at 1600; in series [18], 30. Besides, in [15], the Papp A→B at 100 µM was 8.4 nm/s. Besides, in [16], the Papp B→A at 100 µM was 160 nm/s. Besides, the half-life at 4 µM in series [17] is above 180 min; in series [22], at least 180 min.
In series [22], H-RPKPQQF-OH displayed a half-life at 4 µM of 4.4 min.
In the case of H-RPKPQQF-NH2, the outcome in series [10] was Active. In series [22], this molecule showed a half-life at 4 µM of 6.4 min.
As for `OC[C@@H](O)[C@@H](O)[C@H](O)[C@H](O)CO` [MANNITOL], the values for the recovery at 100 µM in series [9] and in series [19] were 97 to 101% and 99 to 103%, respectively. Moreover, the efflux ratio at 100 µM in series [12] is 1.4. The apparent permeability from apical to basolateral (Papp A→B) at 100 µM in [15] is 1 nm/s. In addition, the apparent permeability from basolateral to apical (Papp B→A) at 100 µM in series [16] came to 2 nm/s.

Broadly, the ED50 is the midpoint of the dose-response relation. The term efflux ratio denotes the permeability from basolateral to apical divided by that in the opposite direction, in the common usage. One may read the Papp A→B as how fast a substance crosses the layer from the apical side. One may read the Papp B→A as how fast a substance crosses the layer from the basolateral side. The term half-life denotes how long it takes for the measured level to halve. A low value points to rapid decline.
